Results: patent US20130217723A1, “Pharmaceutical Composition Combining Tenatoprazole and an Anti-Inflammatory Agent” (priority 2002, published 2013)
Where two headings read alike, the source gives them in different places.

Assays:
[1] = patients under treatment; cited from earlier work
[2] = Phase I pharmacokinetic study of oral tenatoprazole, single dose and daily dose for 7 days; type: in vivo, human (Caucasian individuals); conditions: for half-life: human, plasma, oral, depending on the dose (10-80 mg), read-out: mean elimination half-lives
Experimental: The doses tested were 10, 20, 40 and 80 mg of tenatoprazole.
In this table, the abbreviations employed have the following meanings: • Cmax maximum concentration • Tmax time required to attain maximum concentration • T1/2 elimination half-life • AUC0-t area under the curve, between time 0 and the last measurable concentration.

Row | Structure (SMILES) | percentage of minor disorders observed in patients: dyspeptic symptoms [1] [%] | percentage of minor disorders observed in patients: gastric pain [1] [%] | percentage of minor disorders observed in patients: nausea [1] [%] | plasma half-life/pump regeneration time ratio ([2]; compared with other proton pump inhibitors) | half-life ([2]; after a single dose) [h] | half-life ([2]; after administration for seven days) [h] | Cmax, AUC0-t and AUC0-inf values versus dose ([2]; single or repeated administration, AUC0-inf calculated by extrapolation)
1 | Cc1ccc(-c2cc(C(F)(F)F)nn2-c2ccc(S(N)(=O)=O)cc2)cc1 [celecoxib] | 4.8 | 4.8 | 2.4 | – | – | – | –
2 | COc1ccc2[nH]c([S+]([O-])Cc3ncc(C)c(OC)c3C)nc2n1 (stereo not shown) [tenatoprazole, 5-methoxy-2-[[(4-methoxy-3,5-dimethyl-2-pyridyl)methyl]sulfinyl]imidazo[4,5-b]pyridine] | – | – | – | notably higher than that seen with other proton pump inhibitors | 5 to 6 | 5 to 9.5 | increased in a linear fashion
